Assay results published in patent publication US20240245647A1, “ISOMEROHYDROLASE INHIBITOR FOR TREATMENT OF ATROPHIC FORM OF AGE-RELATED MACULAR DEGENERATION AND STARGARDT DISEASE” (The Trustees of Columbia University in the City of New York, priority 2021, published 2024).
Values after ≈ are worked out from the molar mass of the structure shown.

Test: Thermodynamic aqueous solubility, shake-flask
Format: physicochemical
Conditions: PBS pH 7.4, 24 h, 25° C., assay standards
Description: In addition, chromatographic purity (%) was defined as the peak area of the principal peak relative to the total integrated peak area in the HPLC chromatogram of the calibration standard. A chromatogram of the calibration standard of each test compound, along with a UV/VIS spectrum with labeled absorbance maxima, was generated.

[1] = PBS (shake-flask), aqueous buffer, thermodynamic from solid

Row | Structure (SMILES) | solubility at 24 h [1] [µM] | solubility at 24 h [µM]
1 | CO[C@H]1/C=C/O[C@@]2(C)Oc3c(C)c(O)c4c(O)c(c(/C=N/N5CCN(C)CC5)c(O)c4c3C2=O)NC(=O)/C(C)=C\C=C\[C@H](C)[C@H](O)[C@@H](C)[C@@H](O)[C@@H](C)[C@H](OC(C)=O)[C@@H]1C [Rifampicin] | 200 (≈ 165 µg/mL) | 
2 | COCCc1ccc(OCC(O)CNC(C)C)cc1 (centres unmarked) [Metoprolol] | 193 (≈ 51.5 µg/mL) | 

Second part, the molecule after the results:

Row | solubility at 24 h [1] [µM] | solubility at 24 h [µM] | Structure (SMILES)
3 |  | 7.0 (≈ 1.88 µg/mL) | CC/C(=C(/CC)c1ccc(O)cc1)c1ccc(O)cc1 [Diethylstilbesterol]
4 | 153 (≈ 81.2 µg/mL) |  | CC(=O)N1CCN(c2ccc(OCC3COC(Cn4ccnc4)(c4ccc(Cl)cc4Cl)O3)cc2)CC1 (centres unmarked) [Ketoconazole]
5 | 102 (≈ 25.7 µg/mL) |  | O=C1NC(=O)C(c2ccccc2)(c2ccccc2)N1 [Phenytoin]
